Measured values as given in article PMC11855827, “High-Throughput Screening of Five Compound Libraries for Anthelmintic Activity and Toxicity Leads to the Discovery of Two Flavonoid Compounds” (International Journal of Molecular Sciences, 2025).
Read-outs that look alike come from different tables or passages of the source.

Test system: C. elegans
Assay: microbe, parasite or virus in culture
Settings: Caenorhabditis elegans
[1] = 0 h, read-out: Percentage of motility inhibition 0 h, Table S2, C. elegans SS assay, 110 μM, 0 h, averages of 4 data points
[2] = 24 h, read-out: Percentage of motility inhibition 24 h, Table S2, C. elegans SS assay, 110 μM, 24 h, averages of 4 data points
[3] = 0 h, read-out: Percentage of motility inhibition 0 h
[4] = 24 h, read-out: Percentage of motility inhibition 24 h

| Compound | inhibition at 110 µM [1] [%] | inhibition at 110 µM [2] [%] | inhibition at 110 µM [3] [%] | inhibition at 110 µM [4] [%] |
| --- | --- | --- | --- | --- |
| C[C@H]1O[C@@H](O[C@H]2[C@@H](O)C[C@H](O[C@H]3[C@@H](O)C[C@H](O[C@H]4CC[C@@]5(C)[C@H](CC[C@@H]6[C@@H]5CC[C@]5(C)[C@@H](C7=CC(=O)OC7)CC[C@]65O)C4)O[C@@H]3C)O[C@@H]2C)C[C@H](O)[C@@H]1O [Digitoxin] | 0 | 3 |  |  |
| CC1=CC(=O)[C@@H](O)[C@]2(C)[C@H]3[C@@H](O)[C@H](O)[C@]4(CO)OC[C@@]35[C@@H](C[C@@H]12)OC(=O)[C@H](O)[C@]54O [Yadanziolide A] | 0 | 36 |  |  |
| CC(=O)O[C@@H]1C[C@]23C4=CC[C@@]5(C)[C@H](C(=O)O)[C@@](C)([C@H](C)C(C)C)CC[C@]5(C)[C@H]4CC[C@H]2[C@@](C)(COC3O)[C@H]1O[C@@H]1O[C@H](CO)[C@@H](O)[C@H](O)[C@H]1O (stereo partly drawn) [Enfumafungin] | 0 | 60 |  |  |
| C[C@@H]1CC[C@]2(C(=O)O)CC[C@]3(C)C(=CC[C@@H]4[C@@]5(C)CC[C@H](O)[C@@](C)(CO)[C@@H]5CC[C@]43C)[C@@H]2[C@]1(C)O [Rotundic acid] | 24 | 45 |  |  |
| C=C1C(=O)[C@@]23[C@H](O)C[C@@H]4C(C)(C)C(=O)CC[C@@]4(C)[C@@H]2CC[C@@H]1[C@H]3O [Glaucocalyxin A] | 0 | 7 |  |  |
| COc1c(-c2ccc3cc(NS(C)(=O)=O)ccc3c2)cc(-n2ccc(=O)[nH]c2=O)cc1C(C)(C)C [ABT‐333] | 40 | 0 |  |  |
| COc1cc2c3c(cc4ccccc4c3c1OC)N(C)CC2 [Dehydronuciferine] | 6 | 6 |  |  |
| CC1=CC(=O)c2ccccc2C1=O [Menadione] | 0 | 0 |  |  |
| Cc1cc2cc3c(C)cc(=O)oc3c(C)c2o1 [Trioxsalen] | 6 | 7 |  |  |
| CC(C)c1ccc2c(c1O)CC[C@H]1C3=C(CC[C@]21C)C(=O)OC3 [Triptophenolide] | 11 | 40 |  |  |
| O=C(O)c1ccccc1C(=O)Nc1ccc(S(=O)(=O)Nc2nccs2)cc1 [Phthalylsulfathiazole] | 12 | 0 |  |  |
| O=C(/C=C/c1ccc(O)cc1)c1ccc(O)cc1O [Isoliquiritigenin] | 16 | 4 |  |  |
| C=CC1=C(C(=O)O)N2C(=O)[C@@H](NC(=O)/C(=N\O)c3csc(N)n3)[C@H]2SC1 [Cefdinir] | 0 | 0 |  |  |
| COc1ccc(-c2cc(=O)c3c(O)c(OC)c(OC)c(OC)c3o2)cc1 [Gardenin B] | 6 | 0 |  |  |
| C[C@@H]1C[C@@H]([C@H](O)CC2CC(=O)NC(=O)C2)C(=O)[C@@H](C)C1 [Cycloheximide] | 17 | 0 |  |  |
| CC1(C)CC[C@]2(C(=O)O[C@@H]3O[C@H](CO)[C@@H](O)[C@H](O)[C@H]3O)CC[C@]3(C)C(=CC[C@@H]4[C@@]5(C)CC[C@H](O[C@@H]6O[C@H](C(=O)O)[C@@H](O)[C@H](O)[C@H]6O[C@@H]6OC[C@@H](O)[C@H](O)[C@H]6O)C(C)(C)[C@@H]5CC[C@]43C)[C@@H]2C1 [Pseudoginsenoside RT1] | 1 | 0 |  |  |
| CC(C)OC(=O)[C@H](C)N[P@](=O)(CO[C@H](C)Cn1cnc2c(N)ncnc21)Oc1ccccc1 [GS‐7340] |  |  | 11 | 1 |
| N[C@@H]1CON=C1O [D‐Cycloserine] | 12 | 13 |  |  |
| OCc1c[nH]c2ccccc12 [Indole‐3‐carbinol] | 0 | 18 |  |  |
| CC[C@@H]1[C@H]2CCCCN3[C@H]2[C@H](C[C@H]3[C@@H]2C[C@H](C)C(=O)O2)[C@@H]2[C@H]1OC(=O)[C@H]2C [Tuberostemonine] | 6 | 4 |  |  |
| CC[C@H]1CN2CC[C@]3(C(=O)Nc4ccccc43)[C@@H]2C[C@@H]1/C(=C\OC)C(=O)OC [Rhynchophylline] | 0 | 8 |  |  |

| Compound | inhibition at 110 µM [1] [%] | inhibition at 110 µM [2] [%] | inhibition at 110 µM [3] [%] | inhibition at 110 µM [4] [%] |
| --- | --- | --- | --- | --- |
| NC(=O)CC[C@H](N)C(=O)O [L-Glutamine] | 3 | 0 |  |  |
| Cc1cc(C#N)cc(C)c1Oc1nc(Nc2ccc(C#N)cc2)nc(N)c1Br [Etravirine] | 17 | 2 |  |  |
| CCCCC(O)(Cn1cncn1)c1ccc(Cl)cc1Cl (stereo not drawn) [Hexaconazole] | 14 | 22 |  |  |
| CN1Cc2c(ccc3c2OCO3)-c2ccc3cc4c(cc3c21)OCO4 [Dihydrosanguinarine] | 0 | 0 |  |  |
| CC(C)=CCC[C@](C)(O[C@@H]1O[C@H](CO)[C@@H](O)[C@H](O)[C@H]1O)[C@H]1CC[C@]2(C)[C@@H]1[C@H](O)C[C@@H]1[C@@]3(C)CC[C@H](O[C@@H]4O[C@H](CO)[C@@H](O)[C@H](O)[C@H]4O)C(C)(C)[C@@H]3CC[C@]12C [Ginsenoside F2] | 0 | 45 |  |  |
| NC(=O)Cc1c[nH]c2ccccc12 [Indole‐3‐acetamide] | 0 | 0 |  |  |
| O=C(Nc1ccccc1)c1ccccc1O [Salicylanilide] | 43 | 21 |  |  |
| C=C[C@H]1C[N@@]2CC[C@H]1C[C@@H]2[C@@H](O)c1ccnc2ccc(OC)cc12 [Quinidine] | 23 | 3 |  |  |
| C/C(C=O)=C\CC[C@@H](C)[C@H]1CC[C@@]2(C)C3=CC[C@H]4C(C)(C)C(=O)CC[C@]4(C)C3=CC[C@]12C [Ganoderal A] | 7 | 25 |  |  |
| CC=CC(=O)N(CC)c1ccccc1C (mixture of isomers) [Crotamiton] | 23 | 24 |  |  |
| N[C@@H](Cc1c[nH]c2ccccc12)C(=O)O [L-Tryptophan] |  |  | 26 | 3 |
| O=C1c2c(O)cc(O)cc2OC(c2ccc(O)c(O)c2)C1O (stereo not drawn) [Taxifolin] | 10 | 14 |  |  |
| C[C@H](CCC(=O)O)[C@H]1CC[C@H]2[C@@H]3C[C@H](O)[C@@H]4C[C@H](O)CC[C@]4(C)[C@H]3CC[C@]12C [Hyodeoxycholic acid] | 2 | 18 |  |  |
| CC(=O)OCC1=CO[C@@H](OC(=O)CC(C)C)[C@H]2C1=C[C@H](OC(=O)CC(C)(C)OC(C)=O)[C@]21CO1 [Acevaltrate] |  |  | 7 | 21 |
| COc1cc2c(=O)c(-c3ccc(O)cc3)coc2cc1O [Glycitein] | 0 | 0 |  |  |
| CC[C@]12CCCN3CCc4c(n(c5ccccc45)[C@@](O)(C(=O)OC)C1)[C@@H]32 [Vincamine] | 0 |  |  |  |
| CC(C)CC(C)c1sccc1NC(=O)c1cn(C)nc1C(F)(F)F (stereo not drawn) [Penthiopyrad] | 21 | 18 |  |  |
| CC(=O)N1CCN(c2ccc(OCC3COC(Cn4ccnc4)(c4ccc(Cl)cc4Cl)O3)cc2)CC1 (stereo not drawn) [Ketoconazole] | 13 | 0 |  |  |
| O=C(O)[C@@H]1CCCN1 [L-Proline] | 0 | 0 |  |  |
| COc1c2occc2cc2ccc(=O)oc12 [Methoxsalen] | 23 | 5 |  |  |
